Experimental data published in ChEMBL document CHEMBL5584225, “Discovery of an efficacious KDM5B PROTAC degrader GT-653 up-regulating IFN response genes in prostate cancer” (Eur J Med Chem, 2024).
Each block holds one compound with its values, some of them ahead of it. The source made the active and inactive calls. No cut-off for these calls is given here.

What was measured:
[1] = target: T1, Protein cereblon/Lysine-specific demethylase 5B (Homo sapiens) (UniProt Q96SW2+Q9UGL1); assay: PROTAC activity at CRBN/KDM5B in human 22Rv1 cells assessed as induction of KDM5B degradation at 10 uM incubated for 12 hrs by Western blot analysis relative to control; format: cell-based
T1 sequence (Q96SW2 whole entry, looked up): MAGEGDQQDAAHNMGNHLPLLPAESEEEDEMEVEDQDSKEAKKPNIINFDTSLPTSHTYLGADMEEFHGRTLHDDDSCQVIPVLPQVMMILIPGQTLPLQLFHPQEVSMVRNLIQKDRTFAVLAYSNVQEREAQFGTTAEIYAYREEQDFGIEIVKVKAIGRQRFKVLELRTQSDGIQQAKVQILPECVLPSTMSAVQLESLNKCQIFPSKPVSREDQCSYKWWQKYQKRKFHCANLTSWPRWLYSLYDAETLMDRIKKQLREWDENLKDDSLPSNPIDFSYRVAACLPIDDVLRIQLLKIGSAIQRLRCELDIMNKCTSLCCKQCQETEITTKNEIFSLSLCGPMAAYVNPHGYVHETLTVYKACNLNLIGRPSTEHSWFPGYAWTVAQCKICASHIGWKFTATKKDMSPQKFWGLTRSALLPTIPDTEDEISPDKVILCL
T1 sequence (Q9UGL1 whole entry, looked up): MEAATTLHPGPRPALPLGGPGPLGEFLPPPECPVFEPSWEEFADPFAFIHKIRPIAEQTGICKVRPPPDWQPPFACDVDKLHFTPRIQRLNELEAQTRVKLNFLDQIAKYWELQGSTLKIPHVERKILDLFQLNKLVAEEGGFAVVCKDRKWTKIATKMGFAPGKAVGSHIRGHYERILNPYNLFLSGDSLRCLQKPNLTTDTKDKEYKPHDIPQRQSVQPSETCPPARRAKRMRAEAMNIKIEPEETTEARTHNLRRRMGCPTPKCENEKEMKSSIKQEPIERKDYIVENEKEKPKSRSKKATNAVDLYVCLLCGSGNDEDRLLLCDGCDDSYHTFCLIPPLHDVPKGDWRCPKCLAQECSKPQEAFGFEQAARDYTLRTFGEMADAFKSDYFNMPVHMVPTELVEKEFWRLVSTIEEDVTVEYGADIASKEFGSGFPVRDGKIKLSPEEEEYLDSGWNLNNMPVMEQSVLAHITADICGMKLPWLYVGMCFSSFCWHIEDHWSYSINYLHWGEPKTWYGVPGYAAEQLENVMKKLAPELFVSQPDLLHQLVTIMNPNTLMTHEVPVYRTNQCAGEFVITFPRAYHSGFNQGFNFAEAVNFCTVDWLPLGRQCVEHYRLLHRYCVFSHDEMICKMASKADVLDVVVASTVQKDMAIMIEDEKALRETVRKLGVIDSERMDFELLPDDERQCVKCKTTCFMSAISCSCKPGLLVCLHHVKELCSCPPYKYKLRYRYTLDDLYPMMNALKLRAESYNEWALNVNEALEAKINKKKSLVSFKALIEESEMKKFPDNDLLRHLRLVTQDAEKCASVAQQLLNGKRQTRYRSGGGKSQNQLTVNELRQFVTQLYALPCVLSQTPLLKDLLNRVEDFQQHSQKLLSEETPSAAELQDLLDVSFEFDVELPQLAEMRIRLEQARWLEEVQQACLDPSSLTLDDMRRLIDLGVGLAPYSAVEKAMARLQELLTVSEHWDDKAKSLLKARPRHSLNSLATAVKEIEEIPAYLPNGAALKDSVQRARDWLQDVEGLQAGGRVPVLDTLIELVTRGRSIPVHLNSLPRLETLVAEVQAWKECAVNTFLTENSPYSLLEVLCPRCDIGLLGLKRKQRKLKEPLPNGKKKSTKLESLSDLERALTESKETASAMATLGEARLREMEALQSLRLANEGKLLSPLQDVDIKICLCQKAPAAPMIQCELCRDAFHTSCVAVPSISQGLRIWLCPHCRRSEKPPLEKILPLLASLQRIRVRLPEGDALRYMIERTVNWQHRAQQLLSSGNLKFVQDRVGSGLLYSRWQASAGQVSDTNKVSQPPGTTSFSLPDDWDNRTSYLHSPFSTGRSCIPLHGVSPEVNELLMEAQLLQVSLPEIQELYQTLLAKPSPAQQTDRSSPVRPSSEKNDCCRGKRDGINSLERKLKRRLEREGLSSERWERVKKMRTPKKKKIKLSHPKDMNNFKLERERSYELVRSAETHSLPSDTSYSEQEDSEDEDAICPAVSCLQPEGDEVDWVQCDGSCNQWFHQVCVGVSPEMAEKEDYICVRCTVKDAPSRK

[2] = target: Lysine-specific demethylase 5B (Homo sapiens) (UniProt Q9UGL1); assay: Inhibition of KDM5B in human 22Rv1 cells assessed as upregulation of H3K4me3 level at 20 uM incubated for 24 hrs by Western blot analysis; format: cell-based
Sequence of Lysine-specific demethylase 5B (Homo sapiens) (Q9UGL1 whole entry): as the sequence (Q9UGL1 whole entry, looked up) above

[3] = target: Protein cereblon/Lysine-specific demethylase 5A (Homo sapiens) (UniProt P29375+Q96SW2); assay: Induction of KDM5A-CRBN (unknown origin) protein protein interaction assessed as ternary complex formation; format: protein assay
Sequence of Protein cereblon/Lysine-specific demethylase 5A (Homo sapiens) (P29375 whole entry, looked up): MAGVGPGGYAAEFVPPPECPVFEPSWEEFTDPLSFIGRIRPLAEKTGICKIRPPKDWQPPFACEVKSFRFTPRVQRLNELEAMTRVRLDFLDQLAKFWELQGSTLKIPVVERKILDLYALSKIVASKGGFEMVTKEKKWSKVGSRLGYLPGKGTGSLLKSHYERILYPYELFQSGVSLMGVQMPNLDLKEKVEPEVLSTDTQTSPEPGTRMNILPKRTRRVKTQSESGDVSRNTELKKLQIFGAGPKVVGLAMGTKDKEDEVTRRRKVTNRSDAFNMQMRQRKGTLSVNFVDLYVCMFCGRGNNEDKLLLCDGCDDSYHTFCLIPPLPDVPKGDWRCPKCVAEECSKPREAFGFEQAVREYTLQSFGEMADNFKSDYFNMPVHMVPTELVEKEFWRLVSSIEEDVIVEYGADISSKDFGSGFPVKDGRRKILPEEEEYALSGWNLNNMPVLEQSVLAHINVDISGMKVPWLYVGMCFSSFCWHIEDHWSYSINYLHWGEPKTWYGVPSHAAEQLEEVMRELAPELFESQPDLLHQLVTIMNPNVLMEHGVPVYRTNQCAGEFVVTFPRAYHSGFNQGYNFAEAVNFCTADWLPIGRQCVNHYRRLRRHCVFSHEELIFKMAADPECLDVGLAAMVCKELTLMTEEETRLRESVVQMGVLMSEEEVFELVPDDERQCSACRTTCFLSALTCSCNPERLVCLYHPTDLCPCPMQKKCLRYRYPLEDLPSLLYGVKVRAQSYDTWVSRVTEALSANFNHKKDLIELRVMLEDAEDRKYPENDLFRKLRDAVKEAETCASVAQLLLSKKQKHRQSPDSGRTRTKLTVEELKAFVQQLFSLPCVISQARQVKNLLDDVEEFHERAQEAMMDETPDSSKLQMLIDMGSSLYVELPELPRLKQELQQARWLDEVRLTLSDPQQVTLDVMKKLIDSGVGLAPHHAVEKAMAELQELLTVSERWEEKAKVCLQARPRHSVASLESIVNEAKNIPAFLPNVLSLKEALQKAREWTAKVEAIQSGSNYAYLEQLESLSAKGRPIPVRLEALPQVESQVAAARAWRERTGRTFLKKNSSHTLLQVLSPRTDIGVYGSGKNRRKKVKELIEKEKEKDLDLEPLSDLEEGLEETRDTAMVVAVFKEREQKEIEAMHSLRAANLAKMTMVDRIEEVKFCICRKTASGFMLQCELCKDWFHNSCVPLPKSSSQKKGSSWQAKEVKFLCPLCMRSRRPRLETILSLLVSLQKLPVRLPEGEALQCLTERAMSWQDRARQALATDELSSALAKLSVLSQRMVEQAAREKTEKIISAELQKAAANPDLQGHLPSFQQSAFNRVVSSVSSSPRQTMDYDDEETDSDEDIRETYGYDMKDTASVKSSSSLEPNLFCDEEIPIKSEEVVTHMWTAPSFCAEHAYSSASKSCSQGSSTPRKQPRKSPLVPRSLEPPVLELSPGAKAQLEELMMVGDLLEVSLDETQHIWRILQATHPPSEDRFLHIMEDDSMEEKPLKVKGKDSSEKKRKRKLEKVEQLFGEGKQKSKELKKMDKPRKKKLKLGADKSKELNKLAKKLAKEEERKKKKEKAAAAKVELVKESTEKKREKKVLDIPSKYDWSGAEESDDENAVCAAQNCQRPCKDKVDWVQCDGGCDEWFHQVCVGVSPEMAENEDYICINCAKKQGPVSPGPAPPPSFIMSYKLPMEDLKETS
Sequence of Protein cereblon/Lysine-specific demethylase 5A (Homo sapiens) (Q96SW2 whole entry, looked up): as the sequence (Q96SW2 whole entry, looked up) above

[4] = target: Protein cereblon/Lysine-specific demethylase 5C (Homo sapiens) (UniProt P41229+Q96SW2); assay: Induction of KDM5C-CRBN (unknown origin) protein protein interaction assessed as ternary complex formation; format: protein assay
[5] = target: T1, Protein cereblon/Lysine-specific demethylase 5B (Homo sapiens); assay: PROTAC activity at CRBN/KDM5B in human 22Rv1 cells assessed as reduction in KDM5B level at 0 to 20 uM incubated for 24 hrs by Western blot analysis; format: cell-based; conditions: dose 0-20 µM
[6] = target: T1, Protein cereblon/Lysine-specific demethylase 5B (Homo sapiens); assay: PROTAC activity at CRBN/KDM5B in human 22Rv1 cells assessed as increase in H3K4me3 level at 0 to 20 uM incubated for 24 hrs by Western blot analysis; format: cell-based; conditions: dose 0-20 µM
[7] = target: T1, Protein cereblon/Lysine-specific demethylase 5B (Homo sapiens); assay: PROTAC activity at CRBN/KDM5B in human 22Rv1 cells assessed as reduction in KDM5B level by RT-qPCR analysis; format: cell-based
[8] = target: T1, Protein cereblon/Lysine-specific demethylase 5B (Homo sapiens); assay: PROTAC activity at CRBN/KDM5B in human 22Rv1 cells assessed as increase in H3K4me3 level by […] analysis; format: cell-based
CWR22R [9] = assay: Effect on KDM5B transcription in human 22Rv1 cells at 0 to 20 uM measured after 24 hrs by RT-qPCR analysis; format: functional, cell-based; conditions: dose 0-20 µM
[10] = target: T1, Protein cereblon/Lysine-specific demethylase 5B (Homo sapiens); assay: PROTAC activity at CRBN/KDM5B in human 22Rv1 cells assessed as induction of KDM5B degradation at 10 uM in presence of cycloheximide measured after 2 to 12 hrs by Western blot analysis; format: cell-based; conditions: time 2-12 hrs
[11] = target: Lysine-specific demethylase 5B (Homo sapiens) (UniProt Q9UGL1); assay: Induction of FLAG-tagged KDM5B degradation in HEK293T cells overexpressing KDM5B assessed as increase in ubiquitinated FLAG-KDM5B level by immunoprecipitation analysis; format: cell-based
[12] = target: T1, Protein cereblon/Lysine-specific demethylase 5B (Homo sapiens); assay: Induction of KDM5B-CRBN protein protein interaction in human 22Rv1 cells at 20 uM incubated for 12 hrs in presence of MG-132 by Western blot analysis; format: cell-based
[13] = target: T1, Protein cereblon/Lysine-specific demethylase 5B (Homo sapiens); assay: PROTAC activity at CRBN/KDM5B in human 22Rv1 cells assessed as induction of KDM5B degradation at 5 uM in presence of CPI-455 measured after 24 hrs by Western blot analysis; format: cell-based
[14] = target: T1, Protein cereblon/Lysine-specific demethylase 5B (Homo sapiens); assay: PROTAC activity at CRBN/KDM5B in human 22Rv1 cells assessed as induction of KDM5B degradation at 5 uM in presence of thalidomide measured after 24 hrs by Western blot analysis; format: cell-based
[15] = target: T1, Protein cereblon/Lysine-specific demethylase 5B (Homo sapiens); assay: PROTAC activity at CRBN/KDM5B in human 22Rv1 cells assessed as induction of KDM5B degradation at 5 uM in presence of MG-132 measured after 24 hrs by Western blot analysis; format: cell-based
CWR22R [16] = assay: Cytotoxicity against human 22Rv1 cells assessed as reduction in cell proliferation at 0 to 20 uM measured after 24 to 48 hrs by MTS assay; format: toxicity, cell-based; conditions: dose lower 0 µM, time lower 24 hrs, dose upper 20 µM, time upper 48 hrs
[17] = target: Lysine-specific demethylase 5B (Homo sapiens) (UniProt Q9UGL1); assay: Inhibition of KDM5B non-catalytic activity in human 22Rv1 cells assessed as inhibition of KDM5B binding to SETDB1 by measuring reduction in H3K9me3 level at 20 uM incubated for 24 hrs by Co-IP analysis; format: cell-based
[18] = target: Lysine-specific demethylase 5B (Homo sapiens) (UniProt Q9UGL1); assay: Inhibition of KDM5B in human 22Rv1 cells assessed as upregulation of HHLA3 mRNA expression at 20 uM incubated for 24 hrs by RT-qPCR analysis; format: cell-based
[19] = target: Lysine-specific demethylase 5B (Homo sapiens) (UniProt Q9UGL1); assay: Inhibition of KDM5B in human 22Rv1 cells assessed as upregulation of IFI35 mRNA expression at 20 uM incubated for 24 hrs by RT-qPCR analysis; format: cell-based
[20] = target: Lysine-specific demethylase 5B (Homo sapiens) (UniProt Q9UGL1); assay: Inhibition of KDM5B in human 22Rv1 cells assessed as upregulation of IFI27L2 mRNA expression at 20 uM incubated for 24 hrs by RT-qPCR analysis; format: cell-based
[21] = target: Lysine-specific demethylase 5B (Homo sapiens) (UniProt Q9UGL1); assay: Inhibition of KDM5B in human 22Rv1 cells assessed as upregulation of IRF3 mRNA expression at 20 uM incubated for 24 hrs by RT-qPCR analysis; format: cell-based
[22] = tested on: Protein cereblon/Lysine-specific demethylase 5B (Homo sapiens), Q96SW2+Q9UGL1 [L685W]; assay: PROTAC activity at CRBN/KDM5B L685W mutant in KDM5B-deficient human 22Rv1 cells harboring reintroduced KDM5B L685W assessed as induction of protein degradation at 20 uM incubated for 24 hrs by Western blot analysis; format: cell-based
CWR22R [23] = assay: Downregulation of KDM5B-induced H3K9me3 level in KDM5B-deficient human 22Rv1 cells harboring reintroduced KDM5B L685W at 20 uM incubated for 24 hrs by Western blot analysis; format: functional, cell-based
CWR22R [24] = assay: Upregulation of HHLA3 mRNA expression in KDM5B-deficient human 22Rv1 cells harboring reintroduced KDM5B L685W at 20 uM incubated for 24 hrs by RT-qPCR analysis; format: functional, cell-based
CWR22R [25] = assay: Upregulation of IFI35 mRNA expression in KDM5B-deficient human 22Rv1 cells harboring reintroduced KDM5B L685W at 20 uM incubated for 24 hrs by RT-qPCR analysis; format: functional, cell-based
CWR22R [26] = assay: Upregulation of IFI27L2 mRNA expression in KDM5B-deficient human 22Rv1 cells harboring reintroduced KDM5B L685W at 20 uM incubated for 24 hrs by RT-qPCR analysis; format: functional, cell-based
CWR22R [27] = assay: Upregulation of IRF3 mRNA expression in KDM5B-deficient human 22Rv1 cells harboring reintroduced KDM5B L685W at 20 uM incubated for 24 hrs by RT-qPCR analysis; format: functional, cell-based
[28] = target: Lysine-specific demethylase 5B (Homo sapiens) (UniProt Q9UGL1); assay: Inhibition of KDM5B (unknown origin) assessed as increase in H3K4me3 level

inhibition [2]: Active
SMILES: CC(C)c1c(-c2ccccc2)[nH]c2c(C#N)cnn2c1=O

Activity [1]: 0%
SMILES: N#Cc1cnn2c(=O)cc(-c3ccc(OCCNC(=O)CCCNc4cccc5c4C(=O)N(C4CCC(=O)NC4=O)C5=O)cc3)[nH]c12 (centres undefined)

inhibition [28]: Active
SMILES: CC(C)(C)OC(=O)COc1ccc(-c2cc(=O)n3ncc(C#N)c3[nH]2)cc1

inhibition [28]: Active
SMILES: CC(C)(C)OC(=O)NCCOc1ccc(-c2cc(=O)n3ncc(C#N)c3[nH]2)cc1

Activity [1]: 5.27%
SMILES: N#Cc1cnn2c(=O)cc(-c3ccc(OCCNC(=O)CCOCCNc4cccc5c4C(=O)N(C4CCC(=O)NC4=O)C5=O)cc3)[nH]c12 (centres undefined)

The next lines start with the compound.

SMILES: N#Cc1cnn2c(=O)cc(-c3ccc(OCCNC(=O)CCOCCOCCNc4cccc5c4C(=O)N(C4CCC(=O)NC4=O)C5=O)cc3)[nH]c12 (centres undefined)
Activity [1]: 0%

SMILES: N#Cc1cnn2c(=O)cc(-c3ccc(OCCNC(=O)CCCCCNc4cccc5c4C(=O)N(C4CCC(=O)NC4=O)C5=O)cc3)[nH]c12 (centres undefined)
Activity [1]: 10.8%

SMILES: N#Cc1cnn2c(=O)cc(-c3ccc(OCC(=O)NCCOCCOc4cccc5c4C(=O)N(C4CCC(=O)NC4=O)C5=O)cc3)[nH]c12 (centres undefined)
Activity [1]: 68.3%
Activity [3]: inactive
Activity [4]: inactive
Activity [5]: Active
Activity [6]: Active
Activity [7]: Active
Activity [8]: Active
Activity (CWR22R [9]): inactive
Activity [10]: Active
Activity [11]: Active
Activity [12]: Active
Activity [13]: inactive
Activity [14]: inactive
Activity [15]: inactive
Activity (CWR22R [16]): Non-Toxic
inhibition [2]: Active
inhibition [17]: Active
inhibition [18]: Active
inhibition [19]: Active
inhibition [20]: Active
inhibition [21]: Active
Activity [22]: Active
Activity (CWR22R [23]): Active
Activity (CWR22R [24]): Active
Activity (CWR22R [25]): Active
Activity (CWR22R [26]): Active
Activity (CWR22R [27]): Active

SMILES: N#Cc1cnn2c(=O)cc(-c3ccc(OCC(=O)NCCOCCNC(=O)COc4cccc5c4C(=O)N(C4CCC(=O)NC4=O)C5=O)cc3)[nH]c12 (centres undefined)
Activity [1]: 0%

SMILES: N#Cc1cnn2c(=O)cc(-c3ccc(OCCNC(=O)CCOCCOc4cccc5c4C(=O)N(C4CCC(=O)NC4=O)C5=O)cc3)[nH]c12 (centres undefined)
Activity [1]: 6.31%

SMILES: N#Cc1cnn2c(=O)cc(-c3ccc(OCCNC(=O)CCOCCOCCOCCNc4cccc5c4C(=O)N(C4CCC(=O)NC4=O)C5=O)cc3)[nH]c12 (centres undefined)
Activity [1]: 0%

SMILES: N#Cc1cnn2c(=O)cc(-c3ccc(OCCNC(=O)CCOCCOCCOCCOCCNc4cccc5c4C(=O)N(C4CCC(=O)NC4=O)C5=O)cc3)[nH]c12 (centres undefined)
Activity [1]: 0%

SMILES: N#Cc1cnn2c(=O)cc(-c3ccc(OCC(=O)NCCOCCNC(=O)CNc4cccc5c4C(=O)N(C4CCC(=O)NC4=O)C5=O)cc3)[nH]c12 (centres undefined)
Activity [1]: 0%
